These are literature values, as cited in US10654893B2, “Self-assembling peptide compositions” (3-D MATRIX, LTD., priority 2014, dated 2020).

For the data set the following is noted: cited from earlier work.

As a reminder, the pKa is the negative logarithm of the acid dissociation constant. `N[C@@H](CC(=O)O)C(=O)O` [aspartic acid]: the pKa was 3.71.
Take `N[C@@H](CCC(=O)O)C(=O)O` [glutamic acid]: the pKa is reported as 4.15.
